Laboratory results: patent US20210048443A1, “METHOD FOR DIAGNOSING HAEMOSTASIS DISORDERS USING ACTIVATED CHARCOAL” (UNIVERSITÉ DE NAMUR ASBL, priority 2018, published 2021)

Columns and labels:
PT/clotting factors = test: PT/clotting factors, interference of direct oral anticoagulants; assay type: biochemical; settings: arrow grades, key not given; all factors affected
From the text: (§1) Coagulation tests or assays most affected by the presence of anticoagulants in the plasma sample will be the tests that involve the clotting factor to which the coagulation inhibitor is directed, leading to false-positive or false-negative results (Table 1).

platelet-poor plasma [1] = test: activated Partial Thromboplastin Time (aPTT) assay on plasma with DOACs; assay type: biochemical; settings: for Effect on aPTT of platelet-poor plasma: increasing concentrations of DOACs, no charcoal (FIG. 2a)
Experimental: (§2) Standard tests for in vitro diagnosis of a haemostasis disorder, for example in hospital laboratories, are generally performed on plasma samples obtain from a patient. For the preparation of such plasma samples, blood components of a blood sample from a patient are typically separated by two centrifugation steps, both at 2500 g for 15 min (FIG. 1). The first centrifugation step will separate the blood in solid substances (e.g. red and white blood cells) (i.e. the lower phase) and blood plasma (i.e. upper phase). Subsequently, the blood plasma is collected and submitted to a second centrifugation step, which pelletizes the residual blood cells and/or platelets. The upper phase obtained by the second centrifugation step (i.e. platelet-poor plasma) can be used for haemostatic tests. However, the platelet-poor plasma obtained by standard methods will comprise direct anticoagulants (e.g. DOACs), if the patient is treated therewith, which may interfere with several clotting times tests (Table 1).
(§3) A blood sample obtained from a subject was centrifuged at 2500 g during 15 min to separate the blood into solid substances (e.g. red and white blood cells) (i.e. lower phase) and blood plasma (i.e. upper phase).
The plasma obtained from the first (and only) centrifugation step was incubated with activated charcoal (10 mg/ml of plasma) for 5 minutes and the plasma was subsequently recovered from the activated charcoal by passing the plasma through a filter with 0.65 μm pores (FIG. 3). Passing the plasma through the filter was achieved by a short centrifugation. The filter with 0.65 μm pores allowed to efficiently remove the activated charcoal and residual blood cells and/or platelets, which have a larger size than 0.65 μm, from the plasma with a minimal interference with blood coagulation tests.
(§4) Plasma was obtained by centrifuging once a blood sample obtained from a subject as described in Example 2. The plasma sample was incubated with different concentrations of activated charcoal (i.e. 5 mg/ml, 10 mg/ml or 15 mg/ml) for 5 minutes and the plasma was subsequently recovered from the activated charcoal by passing the plasma through a filter with 0.65 μm pores and activated charcoal by a short centrifugation.

platelet-poor plasma [2] = test: Prothrombin Time (PT) assay on plasma with DOACs; assay type: biochemical; settings: for Effect on PT of platelet-poor plasma: increasing concentrations of DOACs, no charcoal (FIG. 2b)
Experimental: as §2, with “For” for “Standard tests for in vitro diagnosis of a haemostasis disorder, for example in hospital laboratories, are generally performed on plasma samples obtain from a patient. For”
as §3
The plasma obtained from the first (and only) centrifugation step was incubated with activated charcoal (10 mg/ml of plasma) for 5 minutes and the plasma was subsequently recovered from the activated charcoal by passing the plasma through a filter with 0.65 μm pores (FIG. 3). Passing the plasma through the filter was achieved by a short centrifugation.
as §4, with “The” for “Plasma was obtained by centrifuging once a blood sample obtained from a subject as described in Example 2. The”

aPTT/clotting factors = test: aPTT/clotting factors, interference of direct oral anticoagulants; assay type: biochemical; settings: arrow grades, key not given; all factors affected
From the text: as §1

APCR = APCR (activated protein C resistance) assay, interference of direct oral anticoagulants; assay type: biochemical; settings: for Interference with APCR: arrow grades, aPTT-based assays are mostly affected
From the text: as §1

Protein C activity = Protein C activity assay, interference of direct oral anticoagulants; assay type: biochemical; settings: arrow grades; chromogenic and antigen-based assays unaffected, clot-based affected
From the text: as §1

Protein S activity = Protein S activity assay, interference of direct oral anticoagulants; assay type: biochemical; settings: arrow grades; antigen-based assay unaffected, clot-based affected
From the text: as §1

Antithrombin activity = Antithrombin activity assay, interference of direct oral anticoagulants; assay type: biochemical; settings: arrow grades
From the text: as §1

Lupus anticoagulant = Lupus anticoagulant test, interference of direct oral anticoagulants; assay type: biochemical; settings: arrow grades; false positive due to high screen/confirmation assay ratios
From the text: as §1

patient's plasma = test: LA diagnostic assays (PTT LA, Staclot LA, DRVVT, DRVVT confirm) on patient's plasma; assay type: biochemical; settings: platelet-poor plasma of patient treated with rivaroxaban (339 ng per ml), DRVVT confirm (FIG. 6)
Experimental: The efficacy of the method as disclosed herein was assessed in a clinical situation. […] For LA diagnosis, several in vitro diagnosis assays were performed on the patient's plasma, including Partial Thromboplastin Time-Lupus anticoagulant Screen (PTT LA), PTT LA confirm (Staclot LA), Dilute Russel Viper Venom Time screen (DRVVT) and DRVVT confirm.

[3] = human, in vivo

Structure (SMILES)	Interference with PT/clotting factors (PT/clotting factors)	Effect on aPTT of platelet-poor plasma (platelet-poor plasma [1])	Effect on PT of platelet-poor plasma (platelet-poor plasma [2])	Interference with aPTT/clotting factors (aPTT/clotting factors)	Interference with APCR (APCR)	Interference with Protein C activity (Protein C activity)	Interference with Protein S activity (Protein S activity)	Interference with Antithrombin activity (Antithrombin activity)	Interference with Lupus anticoagulant (Lupus anticoagulant)	Interference with Pefakit APCR Factor V Leiden (APCR; Pefakit APCR Factor V Leiden kit)	Clotting time in LA diagnostic assays, untreated plasma (patient's plasma)	Effect of Rivaroxaban on aPTT after activated charcoal treatment (platelet-poor plasma [1]; activated charcoal 5, 10 or 15 mg/ml, 5 minutes, 0.65 μm filter, Rivaroxaban up to 1000 ng/ml (FIG. 5a))	Effect of Rivaroxaban on PT after activated charcoal treatment (platelet-poor plasma [2]; activated charcoal 5, 10 or 15 mg/ml, 5 minutes, 0.65 μm filter, Rivaroxaban up to 1000 ng/ml (FIG. 5b))	rivaroxaban per ml of plasma in patient plasma sample [3] [ng per ml]
COc1ccc(NC(=O)c2ccc(C(=N)N(C)C)cc2)c(C(=O)Nc2ccc(Cl)cn2)c1 [Betrixaban]	↓↓	prolonged	prolonged	↓↓										
COc1ccc(-n2nc(C(N)=O)c3c2C(=O)N(c2ccc(N4CCCCC4=O)cc2)CC3)cc1 [Apixaban, 1-(4-methoxyphenyl)-7-oxo-6-[4-(2-oxopiperidin-1-yl)phenyl]-4,5-dihydropyrazolo[3,4-c]pyridine-3-carboxamide]	↓/↓↓	prolonged	prolonged	↓/↓↓	↑	—/↑	—/↑	—/↑	—/↑					
CN1CCc2nc(C(=O)N[C@@H]3C[C@@H](C(=O)N(C)C)CC[C@@H]3NC(=O)C(=O)Nc3ccc(Cl)cn3)sc2C1 [Edoxaban, N′-(5-chloropyridin-2-yl)-N-[(1S,2R,4S)-4-(dimethylcarbamoyl)-2-[(5-methyl-6,7-dihydro-4H-[1,3]thiazolo[5,4-c]pyridine-2-carbonyl)amino]cyclohexyl]oxamide]	↓↓	prolonged		↓/↓↓	↑		↑	—/↑	↑/↑↑					
O=C(NC[C@H]1CN(c2ccc(N3CCOCC3=O)cc2)C(=O)O1)c1ccc(Cl)s1 [Rivaroxaban, 5-Chloro-N-({(5S)-2-oxo-3-[4-(3-oxo-4-morpholinyl)phenyl]-1,3-oxazolidin-5-yl}methyl)-2-thiophenecarboxamide]	↓↓/↓↓↓	prolonged	prolonged	↓↓	↑	—/↑	—/↑	—/↑	↑/↑↑	No interference	prolongs the clotting time	completely removed	completely removed	339
